Reference: ChEMBL document CHEMBL1141589, “Synthesis and biological evaluation of NO-donor-tacrine hybrids as hepatoprotective anti-Alzheimer drug candidates” (J Med Chem, 2008)

How the values were obtained:
Cholinesterase = Cholinesterase (Homo sapiens, UniProt P06276)
Description: Inhibition of BuChE by Ellman's assay

Acetylcholinesterase = Acetylcholinesterase (Homo sapiens, UniProt P22303); assay: Inhibition of AChE by Ellman's assay
Artery = assay: tissue or blood; conditions: Sus scrofa
Description: Vasorelaxation activity in PGF2-alpha-precontracted pig pulmonary artery

Sequence of Acetylcholinesterase (P22303 whole entry): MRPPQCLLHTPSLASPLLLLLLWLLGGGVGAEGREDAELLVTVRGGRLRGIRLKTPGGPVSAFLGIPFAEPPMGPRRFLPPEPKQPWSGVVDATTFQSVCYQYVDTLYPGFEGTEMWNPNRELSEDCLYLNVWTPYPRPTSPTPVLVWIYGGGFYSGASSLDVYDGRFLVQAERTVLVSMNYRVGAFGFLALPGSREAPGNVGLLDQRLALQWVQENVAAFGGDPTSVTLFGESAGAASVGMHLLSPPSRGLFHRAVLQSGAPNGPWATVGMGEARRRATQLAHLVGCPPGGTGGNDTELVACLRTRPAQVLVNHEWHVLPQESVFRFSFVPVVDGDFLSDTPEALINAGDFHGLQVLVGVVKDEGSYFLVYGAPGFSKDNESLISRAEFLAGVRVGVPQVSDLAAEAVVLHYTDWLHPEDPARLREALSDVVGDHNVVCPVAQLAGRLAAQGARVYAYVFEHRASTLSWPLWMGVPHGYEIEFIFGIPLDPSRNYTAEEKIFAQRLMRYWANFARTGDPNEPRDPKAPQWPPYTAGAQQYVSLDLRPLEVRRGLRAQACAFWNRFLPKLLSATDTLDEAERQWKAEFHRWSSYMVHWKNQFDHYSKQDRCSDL
Sequence of Cholinesterase (P06276 whole entry): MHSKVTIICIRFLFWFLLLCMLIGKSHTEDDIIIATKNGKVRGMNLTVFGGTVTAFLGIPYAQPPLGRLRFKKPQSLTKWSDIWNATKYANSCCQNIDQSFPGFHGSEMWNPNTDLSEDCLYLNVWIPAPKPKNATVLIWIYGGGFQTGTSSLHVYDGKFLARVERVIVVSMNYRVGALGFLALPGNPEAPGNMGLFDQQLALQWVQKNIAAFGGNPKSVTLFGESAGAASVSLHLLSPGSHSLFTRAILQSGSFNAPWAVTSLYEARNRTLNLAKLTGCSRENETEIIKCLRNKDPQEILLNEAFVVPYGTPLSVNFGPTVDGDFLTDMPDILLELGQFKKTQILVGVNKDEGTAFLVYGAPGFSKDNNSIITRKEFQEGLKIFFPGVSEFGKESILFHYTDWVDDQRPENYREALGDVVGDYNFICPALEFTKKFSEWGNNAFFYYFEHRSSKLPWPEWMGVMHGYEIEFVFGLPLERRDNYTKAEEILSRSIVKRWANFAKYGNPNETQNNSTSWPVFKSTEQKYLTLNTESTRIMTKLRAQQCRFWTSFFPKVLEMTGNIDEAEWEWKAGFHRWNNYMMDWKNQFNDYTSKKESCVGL

| SMILES | IC50 (Cholinesterase) [nM] | IC50 (Acetylcholinesterase) [nM] | EC50 (Artery) [nM] |
| --- | --- | --- | --- |
| O=[N+]([O-])OCCCCCCNCCCCNc1c2c(nc3ccccc13)CCCC2 | 10.8 | 18.1 | – |
| O=C(CO/N=[N+](\[O-])N1CCCC1)NCCCCNc1c2c(nc3ccccc13)CCCC2 | 41 | 50.7 | – |
| O=[N+]([O-])OCCCCCCNCCCNc1c2c(nc3ccccc13)CCCC2 | 21.7 | 6.3 | – |
| O=C(CCO[N+](=O)[O-])NCCCNc1c2c(nc3ccccc13)CCCC2 | 28 | 93 | – |
| O=C(CO[N+](=O)[O-])NCCCNc1c2c(nc3ccccc13)CCCC2 | 13.5 | 28.2 | 3680 |
| CC(C)(CO[N+](=O)[O-])C(=O)NCCCNc1c2c(nc3ccccc13)CCCC2 | 5.5 | 69.5 | – |
| O=[N+]([O-])OCCCNCCCNc1c2c(nc3ccccc13)CCCC2 | 5.5 | 6.4 | – |
| CC(C)(C)C(=O)NCCCCNc1c2c(nc3ccccc13)CCCC2 | 36.5 | 21.6 | – |
| CC(C)(CO[N+](=O)[O-])C(=O)NCCCCNc1c2c(nc3ccccc13)CCCC2 | 7.3 | 226 | 10500 |
| O=[N+]([O-])OCCNCCCNc1c2c(nc3ccccc13)CCCC2 | 5.2 | 10 | – |
| O=C(CCO[N+](=O)[O-])NCCCCNc1c2c(nc3ccccc13)CCCC2 | 15.1 | 45.7 | – |
| O=C(CO/N=[N+](\[O-])N1CCCC1)NCCCNc1c2c(nc3ccccc13)CCCC2 | 15.3 | 35.5 | 22500 |
| O=C(CO[N+](=O)[O-])NCCCCNc1c2c(nc3ccccc13)CCCC2 | 12.1 | 22.6 | – |
| O=[N+]([O-])OCCNCCCCNc1c2c(nc3ccccc13)CCCC2 | 13.8 | 11.1 | – |
| O=[N+]([O-])OCCCNCCCCNc1c2c(nc3ccccc13)CCCC2 | 9.9 | 5.6 | 8800 |
| O=[N+]([O-])O[C@H]1CO[C@H]2[C@@H]1OC[C@H]2O[N+](=O)[O-] [ISOSORBIDE DINITRATE] | – | – | 420 |
